ChEMBL document CHEMBL3585251, “Tetracycline analogues with a selective inhibitory effect on HIF-1” (Medchemcomm, 2014)
One block for each molecule: values may come before it. Calls of active or inactive are those of the source. The calls are words filed in the database; no cut-off is given here.

Legend:
[1] = tested on: U-251; test: Inhibition of human HIF1alpha mRNA expression in wild type human U251 cells at 10 uM incubated for 8 hrs; format: functional; conditions: U-251, 8 h
[2] = tested on: U-251; test: Inhibition of human HIF1alpha mRNA expression in wild type human U251 cells at 1 and 10 uM incubated for 8 and 16 hrs under normoxic condition; format: functional, cell-based
[3] = tested on: U-251; test: Effect on basal transcription in human U251 cells co-transfected with pGL3 incubated for 24 hrs by luciferase reporter gene assay; format: ADME, cell-based; conditions: U-251, 24 h
[4] = tested on: U-251; test: Inhibition of hypoxia-induced HIF1beta protein accumulation in wild type human U251 cells at 1 and 10 uM incubated for 8 hrs under normoxic condition; format: cell-based
[5] = biological target: T1, Hypoxia-inducible factor 1-alpha (Homo sapiens, UniProt Q16665); test: Inhibition of human HIF1alpha-mediated transcription expressed in human U251 cells co-transfected with pGL2-TK-HRE incubated for 24 hrs by luciferase reporter gene assay; format: cell-based, U-251
Target sequence in this assay (Q16665 whole entry): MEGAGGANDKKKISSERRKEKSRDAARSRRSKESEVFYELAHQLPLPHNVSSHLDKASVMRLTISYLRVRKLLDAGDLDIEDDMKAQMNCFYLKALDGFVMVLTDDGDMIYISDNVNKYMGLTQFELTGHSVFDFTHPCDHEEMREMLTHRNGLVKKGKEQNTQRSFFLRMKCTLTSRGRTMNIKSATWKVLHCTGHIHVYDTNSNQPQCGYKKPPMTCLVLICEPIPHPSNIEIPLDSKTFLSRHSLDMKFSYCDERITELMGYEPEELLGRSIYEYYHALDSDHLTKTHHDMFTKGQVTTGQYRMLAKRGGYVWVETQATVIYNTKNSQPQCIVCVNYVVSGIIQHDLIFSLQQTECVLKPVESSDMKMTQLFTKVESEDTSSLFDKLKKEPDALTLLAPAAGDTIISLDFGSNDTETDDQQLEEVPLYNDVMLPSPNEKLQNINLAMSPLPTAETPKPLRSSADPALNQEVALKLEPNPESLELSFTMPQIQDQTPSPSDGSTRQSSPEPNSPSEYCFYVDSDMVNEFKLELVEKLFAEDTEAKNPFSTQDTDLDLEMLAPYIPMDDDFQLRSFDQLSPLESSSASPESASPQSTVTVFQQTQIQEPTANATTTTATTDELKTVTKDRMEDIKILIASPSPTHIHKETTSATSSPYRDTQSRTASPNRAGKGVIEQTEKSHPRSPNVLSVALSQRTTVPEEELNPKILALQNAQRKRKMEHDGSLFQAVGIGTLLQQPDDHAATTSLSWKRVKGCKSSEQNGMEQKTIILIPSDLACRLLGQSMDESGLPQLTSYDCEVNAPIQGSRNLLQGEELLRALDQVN

[6] = tested on: U-251; test: Inhibition of human HIF1alpha mRNA expression in wild type human U251 cells at 1 uM incubated for 8 hrs under hypoxic condition (reference value: 0.7 no unit); format: functional
[7] = biological target: T1, Hypoxia-inducible factor 1-alpha; test: Inhibition of human HIF1alpha-mediated VEGF mRNA expression in wild type human U251 cells at 10 uM incubated for 16 hrs under normoxic condition (Rvb =2.9 No unit); format: cell-based; conditions: U-251
Target sequence in this assay (Q16665 whole entry, looked up): as the sequence (Q16665 whole entry) above

[8] = biological target: T1, Hypoxia-inducible factor 1-alpha; test: Inhibition of human HIF1alpha-mediated VEGF mRNA expression in wild type human U251 cells at 10 uM incubated for 8 hrs under hypoxic condition (reference value: 3.5 No unit); format: cell-based; conditions: U-251
Target sequence in this assay (Q16665 whole entry, looked up): as the sequence (Q16665 whole entry) above

[9] = tested on: U-251; test: Inhibition of hypoxia-induced HIF1beta protein accumulation in wild type human U251 cells at 1 and 10 uM incubated for 8 hrs under hypoxic condition; format: cell-based
[10] = biological target: T1, Hypoxia-inducible factor 1-alpha; test: Inhibition of human HIF1alpha-mediated VEGF mRNA expression in wild type human U251 cells at 1 uM incubated for 8 hrs under hypoxic condition (reference value: 3.5 No unit); format: cell-based; conditions: U-251
Target sequence in this assay (Q16665 whole entry, looked up): as the sequence (Q16665 whole entry) above

[11] = tested on: U-251; test: Inhibition of human HIF1alpha mRNA expression in wild type human U251 cells at 10 uM incubated for 16 hrs under hypoxic condition (reference value: 0.9 no unit); format: functional
[12] = tested on: U-251; test: Effect on basal transcription in wild type human U251 cells at 1 and 10 uM incubated for 8 and 16 hrs under normoxic condition; format: ADME, cell-based; conditions: u-251, 16 h
[13] = biological target: T1, Hypoxia-inducible factor 1-alpha; test: Inhibition of human HIF1alpha-mediated VEGF mRNA expression in wild type human U251 cells at 1 uM incubated for 16 hrs under normoxic condition (Rvb =2.9 No unit); format: cell-based; conditions: U-251
Target sequence in this assay (Q16665 whole entry, looked up): as the sequence (Q16665 whole entry) above

[14] = Selectivity index, ratio of EC50 for effect on basal transcription in human U251 cells co-transfected with pGL3 to EC50 for Inhibition of human HIF1alpha expressed in human U251 cells co-transfected with pGL2-TK-HRE; design: species or system U-251
[15] = biological target: T1, Hypoxia-inducible factor 1-alpha; test: Inhibition of human HIF1alpha-mediated VEGF mRNA expression in wild type human U251 cells at 1 uM incubated for 16 hrs under hypoxic condition; format: cell-based; conditions: U-251
Target sequence in this assay (Q16665 whole entry, looked up): as the sequence (Q16665 whole entry) above

[16] = tested on: U-251; test: Inhibition of human HIF1alpha mRNA expression in wild type human U251 cells at 1 uM incubated for 16 hrs under hypoxic condition (reference value: 0.9 no unit); format: functional
[17] = tested on: U-251; test: Inhibition of human HIF1alpha mRNA expression in wild type human U251 cells at 10 uM incubated for 8 hrs under hypoxic condition (reference value: 0.7 no unit); format: functional
[18] = tested on: U-251; test: Inhibition of human HIF1alpha mRNA expression in wild type human U251 cells at 10 uM incubated for 16 hrs; format: functional; conditions: U-251, 16 h
[19] = biological target: T1, Hypoxia-inducible factor 1-alpha; test: Inhibition of human HIF1alpha-mediated VEGF mRNA expression in wild type human U251 cells at 10 uM incubated for 16 hrs under hypoxic condition; format: cell-based; conditions: U-251
Target sequence in this assay (Q16665 whole entry, looked up): as the sequence (Q16665 whole entry) above

[20] = biological target: T1, Hypoxia-inducible factor 1-alpha; test: Inhibition of HIF1alpha protein accumulation in wild type human U251 cells at 10 uM incubated for 16 hrs under normoxic condition; format: cell-based; conditions: U-251
[21] = biological target: T1, Hypoxia-inducible factor 1-alpha; test: Inhibition of hypoxia-induced HIF1alpha protein accumulation in wild type human U251 cells at 1 and 10 uM incubated for 8 hrs under hypoxic condition; format: cell-based; conditions: U-251

Compound: C[C@@]12C[C@@H]3C(=CC[C@@H]4C(=O)NC(=O)[C@@H]43)[C@H](c3ccc(C(F)(F)F)cc3)[C@@H]1C(=O)c1ccccc1C2=O (racemic)
inhibition at 10 µM [1]: 29%
inhibition [2]: Active
EC50 [3]: > 20 µM
inhibition [4]: inactive
EC50 [5]: 2.3 µM
fold change (FC) [6]: 0.8
fold change (FC) [7]: 1.2
fold change (FC) [8]: 1.6
inhibition [9]: inactive
fold change (FC) [10]: 3
fold change (FC) [11]: 0.21
Activity [12]: Non-toxic
fold change (FC) [13]: 1.9
Ratio EC50 [14]: >8.6
inhibition [15]: 35%
fold change (FC) [16]: 0.7
fold change (FC) [17]: 0.5
inhibition at 10 µM [18]: 45%
inhibition [19]: 59%
inhibition [20]: Active
inhibition [21]: Dose-dependent effect

Compound: C[C@@]12C[C@@H]3C(=CC[C@@H]4C(=O)N(CCC(=O)O)C(=O)[C@@H]43)[C@H](c3ccc(F)cc3)[C@@H]1C(=O)c1ccccc1C2=O (racemic)
EC50 [3]: 8.7 µM
EC50 [5]: 4.1 µM
Ratio EC50 [14]: 2.15

Compound: COc1cccc2c1C(=O)[C@@H]1C[C@@H]3C(=CC[C@@H]4C(=O)N(CCC(=O)O)C(=O)[C@@H]43)[C@H](c3ccc(Br)cc3)[C@]1(C)C2=O (racemic)
EC50 [3]: > 20 µM
EC50 [5]: 15.5 µM
Ratio EC50 [14]: >1.4

Compound: CC[C@@]1(O)C(=O)OCc2c1cc1n(c2=O)Cc2cc3c(CN(C)C)c(O)ccc3nc2-1 [TOPOTECAN]
EC50 [3]: > 20 µM

Compound: C[C@@]12C[C@@H]3C(=CC[C@@H]4C(=O)N(CCC(=O)O)C(=O)[C@@H]43)[C@H](c3ccc(Br)cc3)[C@@H]1C(=O)c1ccccc1C2=O (racemic)
inhibition at 10 µM [1]: 43%
inhibition [2]: Active
EC50 [3]: > 20 µM
inhibition [4]: inactive
EC50 [5]: 1.4 µM
fold change (FC) [6]: 0.8
fold change (FC) [7]: 0.9
fold change (FC) [8]: 1.7
inhibition [9]: inactive
fold change (FC) [10]: 2.7
fold change (FC) [11]: 0.2
Activity [12]: Non-toxic
fold change (FC) [13]: 1.6
Ratio EC50 [14]: >14
inhibition [15]: 38%
fold change (FC) [16]: 0.7
fold change (FC) [17]: 0.4
inhibition at 10 µM [18]: 78%
inhibition [19]: 69%
inhibition [20]: Active
inhibition [21]: Dose-dependent effect

Second part, led by results:

EC50 [3]: > 20 µM
EC50 [5]: 7.8 µM
Compound: C[C@@]12C[C@@H]3C(=CC[C@@H]4C(=O)NC(=O)[C@@H]43)[C@H](c3ccc(C(F)(F)F)cc3)[C@]1(C)C(=O)c1ccccc1C2=O (racemic)
Ratio EC50 [14]: >2.7

EC50 [3]: > 20 µM
EC50 [5]: 6.7 µM
Compound: COc1cccc2c1C(=O)[C@@H]1C[C@@H]3C(=CC[C@@H]4C(=O)NC(=O)[C@@H]43)[C@H](c3ccc(C(F)(F)F)cc3)[C@]1(C)C2=O (racemic)
Ratio EC50 [14]: >3

EC50 [3]: > 20 µM
EC50 [5]: 6.7 µM
Compound: C[C@@]12C(=O)c3cccc(O)c3C(=O)[C@@H]1C[C@@H]1C(=CC[C@@H]3C(=O)NC(=O)[C@@H]31)[C@@H]2c1ccc(C(F)(F)F)cc1 (racemic)
Ratio EC50 [14]: >3
